Experimental data as given in patent US4943566A, “Novel 17-aryl-steroids” (Roussel Uclafi, priority 1987, dated 1990).

Assays:
[1] = molecular target: T1, progesterone receptors of rabbit uterus (Oryctolagus cuniculus, UniProt P06186); experiment: Relative binding affinity (ARL), progesterone receptors of rabbit uterus; conditions: rabbit uterus cytosol, tritiated 17,21-dimethyl-19-nor-Δ4,9-pregnadiene-3,20-dione, cold reference hormone progesterone; for relative affinity of the bond (ARL), Progestogen, 2H: incubation 2H at 0° C.; for relative affinity of the bond (ARL), Progestogen, 24H: incubation 24H at 0° C.
T1 construct: The first test was on the progesterone receptors of rabbit uterus; from tissue; host or cells: uterus of estradiol-treated immature rabbits, 105,000 g supernatant (cytosol)
T1 sequence (P06186 1-930): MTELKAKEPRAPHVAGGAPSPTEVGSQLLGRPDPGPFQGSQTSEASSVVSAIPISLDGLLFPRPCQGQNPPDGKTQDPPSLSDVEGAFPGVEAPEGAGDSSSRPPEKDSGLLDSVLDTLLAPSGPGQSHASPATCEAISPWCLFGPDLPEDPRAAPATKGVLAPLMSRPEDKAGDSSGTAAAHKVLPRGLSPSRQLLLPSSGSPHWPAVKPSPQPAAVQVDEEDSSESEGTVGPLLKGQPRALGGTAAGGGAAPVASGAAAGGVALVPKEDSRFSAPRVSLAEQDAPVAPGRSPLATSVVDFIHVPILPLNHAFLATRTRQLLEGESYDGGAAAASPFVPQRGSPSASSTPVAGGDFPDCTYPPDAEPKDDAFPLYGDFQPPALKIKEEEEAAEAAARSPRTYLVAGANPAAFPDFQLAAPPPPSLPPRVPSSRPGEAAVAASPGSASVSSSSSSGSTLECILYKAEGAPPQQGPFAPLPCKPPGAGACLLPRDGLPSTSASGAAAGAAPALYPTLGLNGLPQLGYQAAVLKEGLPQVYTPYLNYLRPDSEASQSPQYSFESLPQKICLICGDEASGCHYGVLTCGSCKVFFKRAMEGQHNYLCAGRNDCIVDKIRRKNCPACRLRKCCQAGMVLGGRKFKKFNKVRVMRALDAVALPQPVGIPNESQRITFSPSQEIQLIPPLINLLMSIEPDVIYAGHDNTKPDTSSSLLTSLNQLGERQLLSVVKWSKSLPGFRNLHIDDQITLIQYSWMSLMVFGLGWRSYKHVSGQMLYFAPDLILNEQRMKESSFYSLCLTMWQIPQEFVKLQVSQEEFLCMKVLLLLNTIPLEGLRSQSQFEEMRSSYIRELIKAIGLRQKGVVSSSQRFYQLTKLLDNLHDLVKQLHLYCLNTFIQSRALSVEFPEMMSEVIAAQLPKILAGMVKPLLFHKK
Description: The first test was on the progesterone receptors of rabbit uterus in which immature rabbits weighing about 1 kg received a cutaneous application of […] of estradiol and 5 days after treatment, the animals were sacrificed. The […] was removed, weighed and homogenized at 0° C. with a Potter Teflon-glass ina buffered solution. TS (Tris 10 mM, 0.25M Saccharose, HCl, pH 7.4) (1 g of tissue per 50 ml of TS). The homogenate was ultracentrifuged at 105,000 g×90 minutes at 0° C. The surnageant samples were incubated at a time at (t) 0° C. with a constant concentration (T) of tritiated product (R) which is 17,21-dimethyl-19-nor-Δ^4,9 -pregnadiene-3,20-dione in the presence of increasing concentrations from 0 to 2500×10^-9 M or cold R or cold progestenone or cold test compound. The concentration of bound tritiated R was measured for each incubate by absorption technique on dextran carbon.
(§1) The relative affinity of the bond (ARL) was calculated in the same for the receptors. One traced the following 2 curves: the percentage of bond tritiated hormone B/T as a logarithmic function of the concentration of the cold reference hormone and B/T as a logarithmic function of the concentration of the cold test compound. Using the equation [formula] B/T max.=% of bound tritiated hormone for one incubation of tritiated hormone at concentration (T)
(§2) B/T min.=% of bound tritiated hormone for one incubation of tritiated hormone at a concentration T in the presence of a great excess of cold hormone (2500×10^-9 M).
(§3) The intersections of I50 lines and the curves permit an evaluation of the hormone concentration of the cold reference (CH) and the cold test compound (CX) which inhibited by 50% the bounding of tritiated hormone to the receptor. The ARL of the test compound was determined by the equation. [formula] and the following results were obtained.

[2] = molecular target: T2, glucocorticoid receptor, rat thymus (Rattus norvegicus, UniProt P06536); experiment: Relative binding affinity (ARL), glucocorticoid receptor of rat thymus; conditions: rat thymus cytosol, tritiated dexamethasone, cold reference dexamethasone; for relative affinity of the bond (ARL), Glucocorticoid, 2H: incubation 2H at 0° C.; for relative affinity of the bond (ARL), Glucocorticoid, 24H: incubation 24H at 0° C.
T2 construct: The second test was a glucocrticoid receptor test on rat thymus; from tissue; host or cells: thymus of adrenalectomized male Sprague Dawley EOPS rats, 105,000 g supernatant (cytosol)
T2 sequence (P06536 1-795): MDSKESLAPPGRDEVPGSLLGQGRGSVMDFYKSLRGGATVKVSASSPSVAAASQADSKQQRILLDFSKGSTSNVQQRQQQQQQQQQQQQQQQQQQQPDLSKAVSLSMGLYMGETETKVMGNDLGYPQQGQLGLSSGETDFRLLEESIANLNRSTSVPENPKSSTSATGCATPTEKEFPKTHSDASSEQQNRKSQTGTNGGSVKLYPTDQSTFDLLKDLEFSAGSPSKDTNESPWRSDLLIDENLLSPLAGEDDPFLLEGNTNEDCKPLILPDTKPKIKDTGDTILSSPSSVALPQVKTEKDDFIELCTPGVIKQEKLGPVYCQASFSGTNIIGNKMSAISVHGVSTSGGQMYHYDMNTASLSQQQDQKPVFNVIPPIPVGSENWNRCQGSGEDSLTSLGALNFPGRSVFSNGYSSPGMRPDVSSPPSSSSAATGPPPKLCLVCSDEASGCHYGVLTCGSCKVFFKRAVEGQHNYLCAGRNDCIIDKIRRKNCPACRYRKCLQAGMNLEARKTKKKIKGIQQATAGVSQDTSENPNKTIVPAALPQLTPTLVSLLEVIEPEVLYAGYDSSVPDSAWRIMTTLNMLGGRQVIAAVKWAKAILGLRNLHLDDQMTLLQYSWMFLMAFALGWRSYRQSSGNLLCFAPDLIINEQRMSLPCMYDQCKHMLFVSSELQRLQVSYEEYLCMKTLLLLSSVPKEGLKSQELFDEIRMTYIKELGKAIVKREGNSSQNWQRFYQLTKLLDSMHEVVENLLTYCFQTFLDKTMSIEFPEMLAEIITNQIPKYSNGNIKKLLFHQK
Description: The second test was a glucocrticoid receptor test on rat thymus in which male rats of the Sprague Dawley EOPS strain weighing 160 to 200 g were surrenalectomized. 4 to 8 days after this ablation, the animals were killed and the thymus was removed and homogenized at 0° C. in a buffered TS solution. (Tris 10 mM, 0.25M saccharose, 2 mM dithiothreitol, HCl pH 7.4) with a Potter tetrafluoroethylene-glass (1 g of tissue per 10 ml/TS). The homogenate was ultracentrifuged at 105,000 for 90 minutes at 0° C. and the surnageant samples were incubated at 0° C. for a time t with a constant concentration T of tritiated dexamethasone in the presence of increasing concentrations (0-2500×10^-9 M) or cold dexamethasone or cold test compound. The concentration B of bound tritiated dexamethasone was measured for each incubate by carbon-dextran absorption technique.
as §1, §2, §3

SMILES	relative affinity of the bond (ARL), Progestogen, 2H [1]	relative affinity of the bond (ARL), Progestogen, 24H [1]	relative affinity of the bond (ARL), Glucocorticoid, 2H [2]	relative affinity of the bond (ARL), Glucocorticoid, 24H [2]
COc1ccc([C@H]2C[C@@]3(C)[C@@H](CC[C@@]3(O)c3ccc(OC)cc3)[C@@H]3CCC4=CC(=O)CCC4=C32)cc1 [Example 1, 11β,17α-bis-(4-methoxy-phenyl)-Δ^4,9-estradiene-17β-ol-3-one]	48	259	94	68
CN(C)c1ccc([C@H]2C[C@@]3(C)[C@@H](CC[C@@]3(O)c3ccc(O)cc3)[C@@H]3CCC4=CC(=O)CCC4=C32)cc1 [Example 6, 11β-(4-dimethylamino-phenyl)-17α-(4-hydroxy-phenyl)-Δ^4,9-estradiene-17β-ol-3-one]	33	35	133	97
CSc1ccc([C@H]2C[C@@]3(C)[C@@H](CC[C@@]3(O)c3ccc(N(C)C)cc3)[C@@H]3CCC4=CC(=O)CCC4=C32)cc1 [Example 7, 11β-(4-methylthio-phenyl)-17α-(4-dimethylamino-phenyl)-Δ^4,9-estraidene-17β-ol-3-one]	32	150	71	57
Cc1ccc([C@]2(O)CC[C@H]3[C@@H]4CCC5=CC(=O)CCC5=C4[C@@H](c4ccc(N(C)C)cc4)C[C@@]32C)cc1 [Example 9, 11β-(4-dimethylamino-phenyl)-17α-(4-methyl-phenyl)-Δ^4,9-estradiene-17β-ol-3-one]	22	110	39	40
CN(C)c1ccc([C@H]2C[C@@]3(C)[C@@H](CC[C@@]3(O)c3ccccc3O)[C@@H]3CCC4=CC(=O)CCC4=C32)cc1 [Example 10, 11β-(4-dimethylamino-phenyl)-17α-(2-hydroxy-phenyl)-Δ^4,9-estradiene-17β-ol-3-one]	47	189	106	112
COc1ccccc1[C@]1(O)CC[C@H]2[C@@H]3CCC4=CC(=O)CCC4=C3[C@@H](c3ccc(N(C)C)cc3)C[C@@]21C [Example 11 (Product A), 11β-(4-dimethylamino-phenyl)-17α-(2-methoxy-phenyl)-Δ^4,9-estradiene-17β-ol-3-one]	38	230	56	45
COc1ccccc1[C@@]1(O)CC[C@H]2[C@@H]3CCC4=CC(=O)CCC4=C3[C@@H](c3ccc(N(C)C)cc3)C[C@@]21C [Example 11 (Product B), 11β-(4-dimethylamino-phenyl)-17β-(2-methoxy-phenyl)-Δ^4,9-estradiene-17α-ol-3-one]	12	49	47	40
COc1cccc([C@]2(O)CC[C@H]3[C@@H]4CCC5=CC(=O)CCC5=C4[C@@H](c4ccc(N(C)C)cc4)C[C@@]32C)c1 [Example 12 (Product A), 11β-(4-dimethylamino-phenyl)-17α-(3-methoxy-phenyl)-Δ^4,9-estradiene-17β-ol-3-one]	24	131	90	76
